The values below are quoted from earlier work in patent publication US11857553B2, “Chromium containing compositions for improving health and fitness” (NUTRITION 21, LLC, priority 2016, dated 2024).

The subject of one series is chromium absorption. As to conditions: orally administered CrCl3.
The conditions of series [1]: rats, several thousand times the upper limit of the ESADDI for chromium for humans.

Turning to `CC(=O)Oc1ccccc1C(=O)O` [aspirin], the “effect on chromium absorption” value in the series on chromium absorption is “facilitate chromium absorption”.
Regarding `[Cl][Cr]([Cl])[Cl]` [chromium chloride], in series [1], the toxicity entry is recorded as “without toxic effects”.
As for `COc1ccc2c(c1)c(CC(=O)O)c(C)n2C(=O)c1ccc(Cl)cc1` [indomethacin], the “effect on chromium absorption” value in the series with chromium absorption is listed as “facilitate chromium absorption”.
As to chromium picolinate, the toxicity entry in series [1] is given as “without toxic effects”.
